We go through 2 molecules from ChEMBL document CHEMBL1131653, “Syntheses of D- and L-myo-inositol 1,2,4,5-tetrakisphosphate and stereoselectivity of the I(1,4,5)P3 receptor binding” (Bioorg Med Chem Lett, 1998).

Each structure is given as a SMILES string. pIC50: −log10 of the molar value.

The pIC50 is −log10 of the IC50, conventionally taken in molar units.

For this experiment, the target named is Inositol 1,4,5-trisphosphate-gated calcium channel ITPR3 (Bos taurus, UniProt Q8WN95). Briefly: Binding affinity towards Inositol 1,4,5-trisphosphate receptor was evaluated by the standard competitive binding assay using 1.25 nM [3H]D-I(1,4,5)P3 binding protein, prepared from bovine adrenal cortex. Type of experiment: tissue-based.
Chain of Inositol 1,4,5-trisphosphate-gated calcium channel ITPR3 (Q8WN95 whole entry): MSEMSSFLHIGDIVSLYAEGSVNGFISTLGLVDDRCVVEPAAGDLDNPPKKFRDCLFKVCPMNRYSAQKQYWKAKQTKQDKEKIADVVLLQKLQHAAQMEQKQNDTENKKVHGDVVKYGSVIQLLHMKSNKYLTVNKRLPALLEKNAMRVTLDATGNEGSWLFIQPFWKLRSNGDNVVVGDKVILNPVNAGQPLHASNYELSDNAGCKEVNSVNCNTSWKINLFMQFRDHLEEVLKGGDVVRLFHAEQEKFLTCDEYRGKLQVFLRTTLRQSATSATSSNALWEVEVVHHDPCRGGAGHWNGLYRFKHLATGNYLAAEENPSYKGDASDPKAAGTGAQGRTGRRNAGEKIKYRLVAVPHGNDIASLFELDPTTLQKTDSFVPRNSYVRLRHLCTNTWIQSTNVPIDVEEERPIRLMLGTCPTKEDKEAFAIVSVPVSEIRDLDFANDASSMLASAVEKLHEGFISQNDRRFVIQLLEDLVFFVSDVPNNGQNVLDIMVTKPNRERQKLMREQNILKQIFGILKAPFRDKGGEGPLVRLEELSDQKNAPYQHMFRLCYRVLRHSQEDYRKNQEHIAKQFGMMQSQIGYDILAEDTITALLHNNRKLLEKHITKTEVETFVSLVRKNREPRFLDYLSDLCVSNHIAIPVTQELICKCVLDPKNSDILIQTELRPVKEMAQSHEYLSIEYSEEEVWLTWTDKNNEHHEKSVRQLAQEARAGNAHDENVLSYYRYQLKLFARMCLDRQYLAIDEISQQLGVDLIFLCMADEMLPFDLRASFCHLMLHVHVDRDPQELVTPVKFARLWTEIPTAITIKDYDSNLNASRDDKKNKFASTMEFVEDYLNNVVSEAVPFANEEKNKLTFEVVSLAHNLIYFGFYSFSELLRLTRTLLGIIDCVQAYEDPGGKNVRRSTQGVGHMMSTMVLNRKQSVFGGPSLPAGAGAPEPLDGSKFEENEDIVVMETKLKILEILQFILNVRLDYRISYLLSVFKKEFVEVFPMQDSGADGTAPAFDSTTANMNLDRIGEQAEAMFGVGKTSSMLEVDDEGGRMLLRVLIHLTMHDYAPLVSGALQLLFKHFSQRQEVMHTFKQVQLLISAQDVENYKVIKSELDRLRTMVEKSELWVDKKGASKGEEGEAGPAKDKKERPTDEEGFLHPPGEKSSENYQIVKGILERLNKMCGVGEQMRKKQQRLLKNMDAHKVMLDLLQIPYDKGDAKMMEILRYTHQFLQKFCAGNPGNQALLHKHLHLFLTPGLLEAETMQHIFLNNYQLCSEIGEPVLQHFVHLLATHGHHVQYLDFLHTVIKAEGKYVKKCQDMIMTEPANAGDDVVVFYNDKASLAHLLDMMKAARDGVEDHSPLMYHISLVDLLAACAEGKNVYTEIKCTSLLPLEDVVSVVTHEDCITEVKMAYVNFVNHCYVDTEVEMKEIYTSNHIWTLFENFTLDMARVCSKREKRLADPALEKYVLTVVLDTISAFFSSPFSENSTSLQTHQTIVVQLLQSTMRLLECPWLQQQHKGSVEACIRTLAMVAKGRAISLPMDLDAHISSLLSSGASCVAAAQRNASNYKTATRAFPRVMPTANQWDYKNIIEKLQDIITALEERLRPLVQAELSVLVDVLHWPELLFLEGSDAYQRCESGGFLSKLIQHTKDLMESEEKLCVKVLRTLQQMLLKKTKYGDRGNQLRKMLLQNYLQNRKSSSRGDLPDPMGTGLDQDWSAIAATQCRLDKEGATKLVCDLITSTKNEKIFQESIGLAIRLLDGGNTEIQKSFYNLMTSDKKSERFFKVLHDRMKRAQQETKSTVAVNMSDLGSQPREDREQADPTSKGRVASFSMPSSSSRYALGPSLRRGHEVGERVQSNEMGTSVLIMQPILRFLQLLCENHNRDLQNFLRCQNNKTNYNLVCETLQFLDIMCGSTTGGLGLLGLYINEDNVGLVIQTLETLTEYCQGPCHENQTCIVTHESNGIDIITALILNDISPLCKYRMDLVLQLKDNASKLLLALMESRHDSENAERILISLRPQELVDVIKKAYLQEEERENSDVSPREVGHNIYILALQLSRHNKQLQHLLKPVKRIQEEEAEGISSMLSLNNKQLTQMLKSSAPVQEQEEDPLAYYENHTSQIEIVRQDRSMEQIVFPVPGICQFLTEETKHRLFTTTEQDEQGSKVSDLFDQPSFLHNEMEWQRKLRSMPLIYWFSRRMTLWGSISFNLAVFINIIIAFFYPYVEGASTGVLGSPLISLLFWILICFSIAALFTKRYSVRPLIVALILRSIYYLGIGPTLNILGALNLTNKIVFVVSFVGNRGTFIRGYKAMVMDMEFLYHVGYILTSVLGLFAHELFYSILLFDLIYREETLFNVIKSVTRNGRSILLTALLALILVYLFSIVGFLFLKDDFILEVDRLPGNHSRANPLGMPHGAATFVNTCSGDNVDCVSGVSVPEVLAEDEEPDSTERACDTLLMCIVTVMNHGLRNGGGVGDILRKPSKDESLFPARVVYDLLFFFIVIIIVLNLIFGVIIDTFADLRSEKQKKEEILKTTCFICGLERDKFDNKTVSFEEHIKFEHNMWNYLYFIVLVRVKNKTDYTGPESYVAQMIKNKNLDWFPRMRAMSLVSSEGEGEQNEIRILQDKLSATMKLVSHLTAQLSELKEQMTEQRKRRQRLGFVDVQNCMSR

For `O=P(O)(O)O[C@@H]1[C@@H](O)[C@H](OP(=O)(O)O)[C@@H](OP(=O)(O)O)[C@H](O)[C@@H]1OP(=O)(O)O`, the pIC50 is 6.22.

On to `O=P(O)(O)O[C@@H]1[C@@H](O)[C@@H](OP(=O)(O)O)[C@@H](OP(=O)(O)O)[C@H](O)[C@H]1OP(=O)(O)O`, for which the pIC50 was 7.87.
